The experiment is described as follows: FRAP activity test and antioxidant evaluation test using rats. Type of experiment: in vivo, rats of Wistar strain. The conditions noted are these: male Wistar rats, oral, 100 mg/kg. As for the experimental part:
Male rats of Wistar strain (9 weeks age) were fasted for one night, a pine bark extract mentioned in Example 1 or vitamin C was compulsorily administered via oral route, and blood was collected from tail vein from time to time to prepare plasma samples. FRAP value of the plasma sample was measured by a method of Benzie (Benzie, I. F. F. and Strain, J. J., Anal. Biochem., 1996, Volume 239, pages 70 to 76) and its changes with a lapse of time were traced as an index for antioxidant activity in blood. The plasma sample (10 μL) was added to 990 μL of FRAP reagent containing 20 mM of FeCl3 followed by being allowed to stand at 37° C. for 4 minutes, and changes in absorbance at 593 nm were measured. The same operation was conducted using a solution containing a predetermined concentration of […] sample and, from the changes in absorbance, a calibration curve for FRAP values was prepared.

As for `O=C1O[C@H]([C@@H](O)CO)C(O)=C1O` [vitamin C], the “FRAP value in blood” value is “an increase in the FRAP value was also observed”.
